Data reported in patent US20240300958A1, “COMPOUNDS AND THE USES AND PHARMACEUTICAL COMPOSITIONS THEREOF” (BEIJING YOUZHUJU NETWORK TECHNOLOGY CO. LTD., priority 2023, published 2024).
Where two headings read alike, the source gives them in different places.

Columns and labels:
Test in all cases: Kinase inhibition profile (HTRF / ADP Glo kinase assay)
Assay type in all cases: biochemical
PKACα = PKACα (Homo sapiens (Human), UniProt P17612)
Method: (§1) HTRF kinase assay: 2×ATP and substrate solution as well as 2× kinase and metal solution were prepared with assay buffer. 25 nL of compound was transferred to 384-well assay plate by Echo 655. After centrifugation, 2.5 μL of 2× kinase/metal ion solution was added to the 384-well assay plate followed by incubation at 25° C. for 10 min. 2.5 μL of 2× substrate and ATP solution was added to the wells followed by incubation at 25° C. for 60 min. 2× XL665 and antibody solution was prepared with assay buffer. 5 μL of kinase detection reagent was added to the wells followed by incubation at 25° C. for 60 min. Fluorescence signals at 620 nm (Cryptate) and 665 nm (XL665) were read with a microtiter plate reader. ADP Glo kinase assay: 2×ATP and substrate solution as well as 2× kinase and metal solution were prepared with assay buffer. 20 nL of compound was transferred to 384-well assay plate by Echo 655. 2 μL of 2× kinase/metal ion solution was added followed by incubation at 25° C. for 10 min in the 384-well assay plate. 2 μL of 2× substrate and ATP solution was added to the wells followed by incubation at 25° C. for 60 min. 4 μL of ADP Glo reagent was added to the wells followed by incubation at 25° C. for 40 min. 8 μL of kinase test reagent was added to the wells followed by incubation at 25° C. for 40 min. The luminescence signals were recorded on a microtiter plate reader. Data analysis: the reaction control (0.5% DMSO) reading was set to 0% inhibition, and the background (10 μM positive control) reading was set to 100% inhibition, then the percent inhibition for each test solution was calculated and the results are shown in Table 2 and FIG. 3.

MET = MET (Homo sapiens (Human), UniProt P08581)
Method: as §1

JNK2 = JNK2 (Homo sapiens (Human), UniProt P45984)
Chain of JNK2 (P45984 whole entry, species assumed): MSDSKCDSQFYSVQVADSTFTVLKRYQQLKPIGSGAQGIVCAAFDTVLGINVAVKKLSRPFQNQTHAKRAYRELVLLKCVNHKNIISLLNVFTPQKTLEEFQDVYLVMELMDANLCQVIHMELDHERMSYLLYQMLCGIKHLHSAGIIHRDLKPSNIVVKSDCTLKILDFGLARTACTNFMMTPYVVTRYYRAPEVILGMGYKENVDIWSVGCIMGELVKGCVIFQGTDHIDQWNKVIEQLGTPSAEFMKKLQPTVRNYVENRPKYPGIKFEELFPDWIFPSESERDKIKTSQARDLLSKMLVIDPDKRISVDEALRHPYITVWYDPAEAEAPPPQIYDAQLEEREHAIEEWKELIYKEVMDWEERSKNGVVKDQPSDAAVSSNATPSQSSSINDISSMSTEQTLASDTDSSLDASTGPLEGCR
Method: as §1

DCAMKL2 = DCAMKL2 (Homo sapiens (Human), UniProt Q8N568)
Method: as §1

PIM1 = PIM1 (Homo sapiens (Human), UniProt P11309)
Method: as §1

NEK2 = NEK2 (Homo sapiens (Human), UniProt P51955)
Method: as §1

AXL = AXL (Homo sapiens (Human), UniProt P30530)
Method: as §1

CDK18/CyclinY = CDK18/CyclinY (Homo sapiens (Human), UniProt Q07002)
Chain of CDK18/CyclinY (Q07002 whole entry, species assumed): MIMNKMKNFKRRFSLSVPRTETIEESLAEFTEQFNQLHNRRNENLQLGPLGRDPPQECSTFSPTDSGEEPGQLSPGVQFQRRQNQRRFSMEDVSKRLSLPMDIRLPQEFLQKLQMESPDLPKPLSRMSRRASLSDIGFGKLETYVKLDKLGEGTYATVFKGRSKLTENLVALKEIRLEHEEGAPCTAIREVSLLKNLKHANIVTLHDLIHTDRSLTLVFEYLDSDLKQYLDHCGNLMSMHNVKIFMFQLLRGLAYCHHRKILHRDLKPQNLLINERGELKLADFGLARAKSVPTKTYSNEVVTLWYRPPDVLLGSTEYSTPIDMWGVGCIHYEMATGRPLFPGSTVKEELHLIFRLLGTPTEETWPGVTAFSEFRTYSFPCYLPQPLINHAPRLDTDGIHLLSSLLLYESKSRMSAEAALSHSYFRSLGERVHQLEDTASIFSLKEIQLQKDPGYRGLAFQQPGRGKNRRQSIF
Chain of CDK18/CyclinY (Q8ND76 whole entry partner, species assumed): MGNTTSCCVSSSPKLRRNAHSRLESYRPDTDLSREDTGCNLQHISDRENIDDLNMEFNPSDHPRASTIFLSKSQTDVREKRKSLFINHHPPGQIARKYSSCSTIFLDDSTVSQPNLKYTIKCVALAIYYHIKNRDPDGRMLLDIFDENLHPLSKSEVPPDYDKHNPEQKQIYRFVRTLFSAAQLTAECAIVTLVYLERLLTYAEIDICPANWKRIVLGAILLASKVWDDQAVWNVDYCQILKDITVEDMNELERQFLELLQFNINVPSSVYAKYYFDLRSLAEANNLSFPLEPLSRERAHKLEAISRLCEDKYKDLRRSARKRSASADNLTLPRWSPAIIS
Method: as §1

CDK5/p35NCK = CDK5/p35NCK (Homo sapiens (Human), UniProt Q00535)
Chain of CDK5/p35NCK (Q00535 whole entry, species assumed): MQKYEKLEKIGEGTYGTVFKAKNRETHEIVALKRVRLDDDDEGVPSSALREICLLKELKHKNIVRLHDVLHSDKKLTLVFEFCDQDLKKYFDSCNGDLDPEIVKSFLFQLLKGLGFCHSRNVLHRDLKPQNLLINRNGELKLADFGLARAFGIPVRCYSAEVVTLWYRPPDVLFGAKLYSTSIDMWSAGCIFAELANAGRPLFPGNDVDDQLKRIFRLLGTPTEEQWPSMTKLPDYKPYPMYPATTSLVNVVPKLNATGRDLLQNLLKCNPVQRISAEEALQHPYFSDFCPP
Chain of CDK5/p35NCK (Q15078 whole entry partner, species assumed): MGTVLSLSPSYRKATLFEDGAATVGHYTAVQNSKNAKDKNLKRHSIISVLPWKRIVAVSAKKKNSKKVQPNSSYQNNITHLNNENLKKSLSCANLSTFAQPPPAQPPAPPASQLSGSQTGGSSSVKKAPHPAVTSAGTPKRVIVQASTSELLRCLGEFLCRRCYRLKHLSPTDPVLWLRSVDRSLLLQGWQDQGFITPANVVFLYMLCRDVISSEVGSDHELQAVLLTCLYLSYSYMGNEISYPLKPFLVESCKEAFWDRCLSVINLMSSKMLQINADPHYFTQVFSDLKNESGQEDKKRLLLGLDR
Method: as §1

PLK2 = PLK2 (Homo sapiens (Human), UniProt Q9NYY3)
Chain of PLK2 (Q9NYY3 whole entry, species assumed): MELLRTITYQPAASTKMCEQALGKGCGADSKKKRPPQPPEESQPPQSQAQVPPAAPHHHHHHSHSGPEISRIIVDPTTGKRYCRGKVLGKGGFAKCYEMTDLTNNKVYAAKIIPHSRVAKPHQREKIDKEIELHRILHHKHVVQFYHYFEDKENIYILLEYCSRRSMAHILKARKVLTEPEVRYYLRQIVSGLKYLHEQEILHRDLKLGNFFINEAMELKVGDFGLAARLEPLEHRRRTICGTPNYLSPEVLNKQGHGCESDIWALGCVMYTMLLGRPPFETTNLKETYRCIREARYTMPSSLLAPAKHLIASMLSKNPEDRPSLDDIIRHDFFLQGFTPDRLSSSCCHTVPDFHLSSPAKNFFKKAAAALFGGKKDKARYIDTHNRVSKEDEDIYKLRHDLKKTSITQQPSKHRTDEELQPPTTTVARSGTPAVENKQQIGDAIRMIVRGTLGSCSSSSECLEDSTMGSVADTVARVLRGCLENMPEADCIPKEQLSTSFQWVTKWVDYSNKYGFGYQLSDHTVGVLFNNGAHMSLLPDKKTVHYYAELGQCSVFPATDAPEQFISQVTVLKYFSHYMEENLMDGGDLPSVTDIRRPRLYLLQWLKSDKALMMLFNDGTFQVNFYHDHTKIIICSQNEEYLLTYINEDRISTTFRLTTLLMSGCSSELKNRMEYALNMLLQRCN
Method: as §1

EGFR = EGFR (Homo sapiens (Human), UniProt P00533)
Method: as §1

BRAF = BRAF (Homo sapiens (Human), UniProt P15056)
Chain of BRAF (P15056 whole entry, species assumed): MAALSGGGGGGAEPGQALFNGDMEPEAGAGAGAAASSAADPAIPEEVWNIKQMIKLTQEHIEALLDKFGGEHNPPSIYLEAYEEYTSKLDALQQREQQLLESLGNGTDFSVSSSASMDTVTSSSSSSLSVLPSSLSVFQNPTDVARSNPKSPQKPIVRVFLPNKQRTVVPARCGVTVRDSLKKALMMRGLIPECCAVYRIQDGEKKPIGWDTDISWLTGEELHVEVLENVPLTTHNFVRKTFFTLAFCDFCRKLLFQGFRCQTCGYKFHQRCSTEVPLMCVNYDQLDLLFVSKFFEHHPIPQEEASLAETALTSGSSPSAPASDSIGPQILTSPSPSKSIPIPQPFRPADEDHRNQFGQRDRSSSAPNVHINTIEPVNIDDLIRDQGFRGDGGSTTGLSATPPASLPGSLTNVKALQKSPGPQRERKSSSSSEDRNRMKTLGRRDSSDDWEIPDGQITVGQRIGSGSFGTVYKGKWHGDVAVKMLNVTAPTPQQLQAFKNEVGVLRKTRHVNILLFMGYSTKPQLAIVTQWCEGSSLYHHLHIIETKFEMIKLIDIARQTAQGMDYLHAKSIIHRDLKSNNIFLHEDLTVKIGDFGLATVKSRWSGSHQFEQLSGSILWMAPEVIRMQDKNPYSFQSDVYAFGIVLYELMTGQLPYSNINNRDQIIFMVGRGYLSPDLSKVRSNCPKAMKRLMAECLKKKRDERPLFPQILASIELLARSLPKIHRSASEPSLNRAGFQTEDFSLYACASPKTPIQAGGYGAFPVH
Method: as §1

DAPK1 = DAPK1 (Homo sapiens (Human), UniProt P53355)
Method: as §1

FGFR1 = FGFR1 (Homo sapiens (Human), UniProt P11362)
Chain of FGFR1 (P11362 22-822, species assumed): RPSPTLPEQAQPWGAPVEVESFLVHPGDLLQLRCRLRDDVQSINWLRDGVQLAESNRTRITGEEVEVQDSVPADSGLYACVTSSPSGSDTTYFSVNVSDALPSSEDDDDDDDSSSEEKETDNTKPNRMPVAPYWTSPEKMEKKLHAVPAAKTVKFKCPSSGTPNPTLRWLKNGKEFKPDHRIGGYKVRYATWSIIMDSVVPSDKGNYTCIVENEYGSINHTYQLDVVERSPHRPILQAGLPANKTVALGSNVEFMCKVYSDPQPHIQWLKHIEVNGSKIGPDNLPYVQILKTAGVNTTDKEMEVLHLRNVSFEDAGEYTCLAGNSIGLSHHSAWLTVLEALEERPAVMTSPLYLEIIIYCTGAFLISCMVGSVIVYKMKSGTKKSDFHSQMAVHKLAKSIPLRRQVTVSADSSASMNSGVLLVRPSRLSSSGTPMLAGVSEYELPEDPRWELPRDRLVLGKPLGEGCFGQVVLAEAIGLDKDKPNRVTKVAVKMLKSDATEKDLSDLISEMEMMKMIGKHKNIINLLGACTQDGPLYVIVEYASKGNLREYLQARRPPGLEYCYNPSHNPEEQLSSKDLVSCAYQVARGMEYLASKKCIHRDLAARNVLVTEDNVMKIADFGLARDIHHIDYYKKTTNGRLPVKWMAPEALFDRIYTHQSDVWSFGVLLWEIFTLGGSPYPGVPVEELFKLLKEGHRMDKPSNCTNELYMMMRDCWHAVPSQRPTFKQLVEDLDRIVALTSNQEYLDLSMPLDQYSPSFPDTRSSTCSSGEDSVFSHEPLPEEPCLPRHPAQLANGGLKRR
Method: as §1

Erk2 = Erk2 (Homo sapiens (Human), UniProt P28482)
Method: as §1

CDK1/CycE1 = CDK1/CycE1 (Homo sapiens (Human), UniProt P06493)
Method: as §1

JAK3 = JAK3 (Homo sapiens (Human), UniProt P52333)
Method: as §1

KDR = KDR (Homo sapiens (Human), UniProt P35968)
Method: as §1

IKKα = IKKα (Homo sapiens (Human), UniProt O15111)
Method: as §1

ALK 4 = ALK 4 (Homo sapiens (Human), UniProt P36896)
Chain of ALK 4 (P36896 24-505, species assumed): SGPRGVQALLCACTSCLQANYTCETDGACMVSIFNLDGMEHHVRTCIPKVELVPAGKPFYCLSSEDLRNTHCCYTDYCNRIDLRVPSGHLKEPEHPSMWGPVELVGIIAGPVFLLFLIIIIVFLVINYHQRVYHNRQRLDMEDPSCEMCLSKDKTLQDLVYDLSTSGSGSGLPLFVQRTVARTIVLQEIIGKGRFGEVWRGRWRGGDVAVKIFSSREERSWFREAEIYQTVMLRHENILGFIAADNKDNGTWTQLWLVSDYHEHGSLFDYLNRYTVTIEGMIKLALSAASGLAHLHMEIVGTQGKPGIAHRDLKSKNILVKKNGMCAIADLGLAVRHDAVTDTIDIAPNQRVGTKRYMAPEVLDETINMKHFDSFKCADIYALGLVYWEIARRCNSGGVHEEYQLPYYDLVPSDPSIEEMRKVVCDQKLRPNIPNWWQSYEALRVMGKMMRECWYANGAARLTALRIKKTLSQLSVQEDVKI
Method: as §1

CK1γ2 = CK1γ2 (Homo sapiens (Human), UniProt P78368)
Chain of CK1γ2 (P78368 whole entry): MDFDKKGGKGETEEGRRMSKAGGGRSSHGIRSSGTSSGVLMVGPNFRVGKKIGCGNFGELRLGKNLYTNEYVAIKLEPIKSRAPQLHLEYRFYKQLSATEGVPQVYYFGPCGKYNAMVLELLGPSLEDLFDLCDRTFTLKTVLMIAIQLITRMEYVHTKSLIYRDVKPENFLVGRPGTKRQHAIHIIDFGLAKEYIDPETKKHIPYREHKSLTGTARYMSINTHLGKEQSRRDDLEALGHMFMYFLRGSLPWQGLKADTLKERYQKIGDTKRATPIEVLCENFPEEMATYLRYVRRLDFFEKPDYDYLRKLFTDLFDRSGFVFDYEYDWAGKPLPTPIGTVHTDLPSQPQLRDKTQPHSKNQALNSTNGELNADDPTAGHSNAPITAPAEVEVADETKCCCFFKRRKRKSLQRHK
Method: as §1

MAPKAPK2 = MAPKAPK2 (Homo sapiens (Human), UniProt P49137)
Method: as §1

[1] = 1 uM Compound C1, read-out: % Inhibition (First measurement)
[2] = 1 uM Compound C1, read-out: % Inhibition (Second measurement)
[3] = 1 uM Compound C1, read-out: Average inhibition (%)

inhibition at 1 µM (PKACα; [1]): -4.44%
inhibition at 1 µM (PKACα; [2]): -1.87%
inhibition at 1 µM (PKACα; [3]): -3.15%
inhibition at 1 µM (MET; [1]): -11.9%
inhibition at 1 µM (MET; [2]): -15.8%
inhibition at 1 µM (MET; [3]): -13.9%
inhibition at 1 µM (JNK2; [1]): 9.39%
inhibition at 1 µM (JNK2; [2]): 9.07%
inhibition at 1 µM (JNK2; [3]): 9.23%
inhibition at 1 µM (DCAMKL2; [1]): -8.91%
inhibition at 1 µM (DCAMKL2; [2]): -8.39%
inhibition at 1 µM (DCAMKL2; [3]): -8.65%
inhibition at 1 µM (PIM1; [1]): -3.17%
inhibition at 1 µM (PIM1; [2]): -4.27%
inhibition at 1 µM (PIM1; [3]): -3.72%
inhibition at 1 µM (NEK2; [1]): 8.18%
inhibition at 1 µM (NEK2; [2]): 2.89%
inhibition at 1 µM (NEK2; [3]): 5.54%
inhibition at 1 µM (AXL; [1]): 15.1%
inhibition at 1 µM (AXL; [2]): 13.3%
inhibition at 1 µM (AXL; [3]): 14.2%
inhibition at 1 µM (CDK18/CyclinY; [1]): 18%
inhibition at 1 µM (CDK18/CyclinY; [2]): 2.55%
inhibition at 1 µM (CDK18/CyclinY; [3]): 10.3%
inhibition at 1 µM (CDK5/p35NCK; [1]): 31.2%
inhibition at 1 µM (CDK5/p35NCK; [2]): 31.2%
inhibition at 1 µM (CDK5/p35NCK; [3]): 31.2%
inhibition at 1 µM (PLK2; [1]): 10.6%
inhibition at 1 µM (PLK2; [2]): 2.02%
inhibition at 1 µM (PLK2; [3]): 6.33%
inhibition at 1 µM (EGFR; [1]): -6.86%
inhibition at 1 µM (EGFR; [2]): 1.78%
inhibition at 1 µM (EGFR; [3]): -2.54%
inhibition at 1 µM (BRAF; [1]): -6.73%
inhibition at 1 µM (BRAF; [2]): -23.9%
inhibition at 1 µM (BRAF; [3]): -15.3%
inhibition at 1 µM (DAPK1; [1]): -14.5%
inhibition at 1 µM (DAPK1; [2]): -5.25%
inhibition at 1 µM (DAPK1; [3]): -9.87%
inhibition at 1 µM (FGFR1; [1]): 0.18%
inhibition at 1 µM (FGFR1; [2]): -18.2%
inhibition at 1 µM (FGFR1; [3]): -9.02%
inhibition at 1 µM (Erk2; [1]): 20.2%
inhibition at 1 µM (Erk2; [2]): 19.3%
inhibition at 1 µM (Erk2; [3]): 19.8%
inhibition at 1 µM (CDK1/CycE1; [1]): 11.9%
inhibition at 1 µM (CDK1/CycE1; [2]): 20.1%
inhibition at 1 µM (CDK1/CycE1; [3]): 16%
inhibition at 1 µM (JAK3; [1]): -1.28%
inhibition at 1 µM (JAK3; [2]): 2.46%
inhibition at 1 µM (JAK3; [3]): 0.59%
inhibition at 1 µM (KDR; [1]): 2.42%
inhibition at 1 µM (KDR; [2]): 1.61%
inhibition at 1 µM (KDR; [3]): 2.01%
inhibition at 1 µM (IKKα; [1]): -18%
inhibition at 1 µM (IKKα; [2]): -12.9%
inhibition at 1 µM (IKKα; [3]): -15.5%
inhibition at 1 µM (ALK 4; [1]): -6.24%
inhibition at 1 µM (ALK 4; [2]): 14.8%
inhibition at 1 µM (ALK 4; [3]): 4.25%
inhibition at 1 µM (CK1γ2; [1]): -6.26%
inhibition at 1 µM (CK1γ2; [2]): -6.88%
inhibition at 1 µM (CK1γ2; [3]): -6.57%
inhibition at 1 µM (MAPKAPK2; [1]): 15.3%
inhibition at 1 µM (MAPKAPK2; [2]): -3.28%
inhibition at 1 µM (MAPKAPK2; [3]): 6.02%
Compound: Cc1ccc(C(=O)Nc2ccccn2)cc1C#Cc1cnc2cc(C3=CCCCC3)cnn12 [Compound C1, 3-{2-[7-(cyclohex-1-en-1-yl)imidazo[1,2-b]pyridazin-3-yl]ethynyl}-4-methyl-N-(pyridin-2-yl)benzamide]
